According to article PMC5218480 (PLoS ONE, 2017):

Tested on: MV-4-11 cells
Assay: Gene expression microarray analysis (Affymetrix PrimeView) and GSEA
Type: cell-based, human
Set-up: RFU PODN (11730768_x_at) / Fold change /veh PODN (11730768_x_at) / RFU LINC00158 (11744669_a_at) / Fold change /veh LINC00158 (11744669_a_at) / RFU DUSP10 (11751237_a_at) / Fold change /veh DUSP10 (11751237_a_at) / RFU ID3 (11757404_x_at) / Fold change /veh ID3 (11757404_x_at) / RFU PLEKHG5 (11737974_s_at) / Fold change /veh PLEKHG5 (11737974_s_at) / RFU LRRC4B (11730491_at) / Fold change /veh LRRC4B (11730491_at) / RFU GIMAP4 (11747438_a_at) / Fold change /veh GIMAP4 (11747438_a_at) / RFU KRT8 (11758183_x_at) / Fold change /veh KRT8 (11758183_x_at) / RFU CNN1 (11734310_a_at) / Fold change /veh CNN1 (11734310_a_at) / RFU VPS37D (11726825_at) / Fold change /veh VPS37D (11726825_at) / RFU C10orf10 (11716522_x_at) / Fold change /veh C10orf10 (11716522_x_at) / RFU KIR2DL2 /// KIR2DL4 /// KIR2DL5A /// KIR2DL5B /// KIR2DS1 /// KIR2DS2 /// KIR2DS3 /// KIR2DS4 /// KIR3DL3 /// KIR3DL3 /// KIR3DS1 (11738374_at) / Fold change /veh KIR2DL2 /// KIR2DL4 /// KIR2DL5A /// KIR2DL5B /// KIR2DS1 /// KIR2DS2 /// KIR2DS3 /// KIR2DS4 /// KIR3DL3 /// KIR3DL3 /// KIR3DS1 (11738374_at) / RFU C1QL1 (11718748_at) / Fold change /veh C1QL1 (11718748_at) / RFU TMPRSS4 (11747572_a_at) / Fold change /veh TMPRSS4 (11747572_a_at) / RFU HAMP (11756126_x_at) / Fold change /veh HAMP (11756126_x_at) / RFU RNFT2 (11725882_a_at) / Fold change /veh RNFT2 (11725882_a_at) / RFU NR4A2 (11747474_a_at) / Fold change /veh NR4A2 (11747474_a_at) / RFU ABCC12 (11746883_a_at) / Fold change /veh ABCC12 (11746883_a_at) / RFU TMEM136 (11760407_x_at) / Fold change /veh TMEM136 (11760407_x_at) / RFU CLDN22 /// WWC2 (11732394_at) / Fold change /veh CLDN22 /// WWC2 (11732394_at) / RFU HLA-DPB1 (11760878_x_at) / Fold change /veh HLA-DPB1 (11760878_x_at) / RFU SPINT1 (11716480_a_at) / Fold change /veh SPINT1 (11716480_a_at) / RFU GAP43 (11754022_s_at) / Fold change /veh GAP43 (11754022_s_at) / RFU A4GNT (11735810_at) / Fold change /veh A4GNT (11735810_at) / RFU PRB3 (11715151_x_at) / Fold change /veh PRB3 (11715151_x_at) / RFU TUBB4B (11761932_at) / Fold change /veh TUBB4B (11761932_at) / RFU CAPN14 (11732068_a_at) / Fold change /veh CAPN14 (11732068_a_at) / RFU TMCC2 (11721928_a_at) / Fold change /veh TMCC2 (11721928_a_at) / RFU IRGQ (11745062_a_at) / Fold change /veh IRGQ (11745062_a_at) / RFU FAM174B (11720279_a_at) / Fold change /veh FAM174B (11720279_a_at) / RFU TMPRSS4 (11748680_a_at) / Fold change /veh TMPRSS4 (11748680_a_at) / RFU FAM212B (11763350_a_at) / Fold change /veh FAM212B (11763350_a_at) / RFU PLEKHG5 (11743358_a_at) / Fold change /veh PLEKHG5 (11743358_a_at) / RFU ZSCAN30 (11745921_a_at) / Fold change /veh ZSCAN30 (11745921_a_at) / RFU CMKLR1 (11741424_a_at) / Fold change /veh CMKLR1 (11741424_a_at) / RFU LOC101060620 /// MAPK8IP1 (11723275_at) / Fold change /veh LOC101060620 /// MAPK8IP1 (11723275_at) / RFU SPTSSB (11747773_x_at) / Fold change /veh SPTSSB (11747773_x_at) / RFU PRSS12 (11739890_at) / Fold change /veh PRSS12 (11739890_at) / RFU BIN1 (11741810_x_at) / Fold change /veh BIN1 (11741810_x_at) / RFU WNT11 (11732464_a_at) / Fold change /veh WNT11 (11732464_a_at) / RFU C10orf10 (11716521_a_at) / Fold change /veh C10orf10 (11716521_a_at) / RFU C5orf56 (11738089_at) / Fold change /veh C5orf56 (11738089_at) / RFU CYB561 (11721691_x_at) / Fold change /veh CYB561 (11721691_x_at) / RFU ANKRD19P (11752326_a_at) / Fold change /veh ANKRD19P (11752326_a_at) / RFU OR2T12 /// OR2T33 /// OR2T8 (11738714_s_at) / Fold change /veh OR2T12 /// OR2T33 /// OR2T8 (11738714_s_at) / RFU VCAN (11748164_a_at) / Fold change /veh VCAN (11748164_a_at) / RFU JSRP1 (11732532_at) / Fold change /veh JSRP1 (11732532_at) / RFU KRTAP10-11 (11738290_x_at) / Fold change /veh KRTAP10-11 (11738290_x_at) / RFU MYO3A (11730013_a_at) / Fold change /veh MYO3A (11730013_a_at) / RFU EBF3 (11725865_a_at) / Fold change /veh EBF3 (11725865_a_at) / RFU CAMK2N1 (11719241_x_at) / Fold change /veh CAMK2N1 (11719241_x_at) / RFU C5orf56 (11738088_a_at) / Fold change /veh C5orf56 (11738088_a_at) / RFU OLFML3 (11715873_a_at) / Fold change /veh OLFML3 (11715873_a_at) / RFU LOC100653217 /// NTM (11731650_a_at) / Fold change /veh LOC100653217 /// NTM (11731650_a_at) / RFU MAPK11 (11762145_a_at) / Fold change /veh MAPK11 (11762145_a_at) / RFU FIZ1 (11724087_x_at) / Fold change /veh FIZ1 (11724087_x_at) / RFU OASL (11726364_x_at) / Fold change /veh OASL (11726364_x_at) / RFU SOX15 (11748057_x_at) / Fold change /veh SOX15 (11748057_x_at) / RFU CD79A (11719716_a_at) / Fold change /veh CD79A (11719716_a_at) / RFU HIST1H1D (11736915_at) / Fold change /veh HIST1H1D (11736915_at) / RFU CASKIN2 (11723855_a_at) / Fold change /veh CASKIN2 (11723855_a_at) / RFU LOC730098 (11760151_x_at) / Fold change /veh LOC730098 (11760151_x_at) / RFU OR4N2 (11742367_at) / Fold change /veh OR4N2 (11742367_at) / RFU PRRT2 (11749266_a_at) / Fold change /veh PRRT2 (11749266_a_at) / RFU SNX32 (11753110_a_at) / Fold change /veh SNX32 (11753110_a_at) / RFU CDHR5 (11726645_a_at) / Fold change /veh CDHR5 (11726645_a_at) / RFU RCAN1 (11760418_a_at) / Fold change /veh RCAN1 (11760418_a_at) / RFU FAM167A (11723789_a_at) / Fold change /veh FAM167A (11723789_a_at) / RFU FAM26E (11764081_at) / Fold change /veh FAM26E (11764081_at) / RFU ISYNA1 (11749810_s_at) / Fold change /veh ISYNA1 (11749810_s_at) / RFU ACY1 (11761880_at) / Fold change /veh ACY1 (11761880_at) / RFU 11764098_at / Fold change /veh 11764098_at / RFU SAMD14 (11745864_x_at) / Fold change /veh SAMD14 (11745864_x_at) / RFU NPB (11741838_a_at) / Fold change /veh NPB (11741838_a_at) / RFU TMPRSS6 (11731388_a_at) / Fold change /veh TMPRSS6 (11731388_a_at) / RFU KRTAP10-2 (11738614_at) / Fold change /veh KRTAP10-2 (11738614_at) / RFU ARHGAP8 /// PRR5-ARHGAP8 (11727945_x_at) / Fold change /veh ARHGAP8 /// PRR5-ARHGAP8 (11727945_x_at) / RFU KRTAP5-7 /// NADSYN1 (11734609_at) / Fold change /veh KRTAP5-7 /// NADSYN1 (11734609_at) / RFU RASL12 (11751679_a_at) / Fold change /veh RASL12 (11751679_a_at) / RFU CDKN2B (11736163_a_at) / Fold change /veh CDKN2B (11736163_a_at) / RFU PRF1 (11729649_at) / Fold change /veh PRF1 (11729649_at) / RFU, ZNF638 /// ZNF638-IT1 / Fold change vs veh, ZNF638 /// ZNF638-IT1 / RFU, PANK3 / Fold change vs veh, PANK3 / RFU, SH3YL1 / Fold change vs veh, SH3YL1 / RFU, ZEB2 / Fold change vs veh, ZEB2 / RFU, NRIP1 / Fold change vs veh, NRIP1 / RFU, PTTG1IP / Fold change vs veh, PTTG1IP / RFU, CAPN2 / Fold change vs veh, CAPN2 / RFU, MED14 / Fold change vs veh, MED14 / RFU, SNORA58 / Fold change vs veh, SNORA58 / RFU, C1orf63 / Fold change vs veh, C1orf63 / RFU, LRRFIP1 / Fold change vs veh, LRRFIP1 / RFU, NDUFAF7 / Fold change vs veh, NDUFAF7 / RFU, SLC12A2 / Fold change vs veh, SLC12A2 / RFU, IBTK / Fold change vs veh, IBTK / RFU, ESF1 / Fold change vs veh, ESF1 / Fold change vs veh, TMEM50B / RFU, TAOK1 / Fold change vs veh, TAOK1 / RFU, ACBD3 / Fold change vs veh, ACBD3 / RFU, TMA16 / Fold change vs veh, TMA16 / RFU, RWDD3 / Fold change vs veh, RWDD3 / RFU, BCAT1 / Fold change vs veh, BCAT1 / RFU, EDEM3 / Fold change vs veh, EDEM3 / RFU, TMEM33 / Fold change vs veh, TMEM33 / RFU, WDR75 / Fold change vs veh, WDR75 / RFU, AHCTF1 / Fold change vs veh, AHCTF1 / RFU, TFRC / Fold change vs veh, TFRC / RFU, ZDHHC17 / Fold change vs veh, ZDHHC17 / RFU, NOM1 / Fold change vs veh, NOM1 / RFU, ARL8B / Fold change vs veh, ARL8B / RFU, ZBTB11 / Fold change vs veh, ZBTB11 / RFU, TAMM41 / Fold change vs veh, TAMM41 / RFU, KIAA1704 /// LOC100996395 / Fold change vs veh, KIAA1704 /// LOC100996395 / RFU, ING1 / Fold change vs veh, ING1 / RFU, TRMT61B / Fold change vs veh, TRMT61B / RFU, FUBP3 / Fold change vs veh, FUBP3 / RFU, TP53 / Fold change vs veh, TP53 / RFU, TNKS2 / Fold change vs veh, TNKS2 / RFU, ZFP14 / Fold change vs veh, ZFP14 / RFU, ACTR2 / Fold change vs veh, ACTR2 / RFU, PPP3R1 / Fold change vs veh, PPP3R1 / RFU, PIK3R1 / Fold change vs veh, PIK3R1 / RFU, HNRNPA1 / Fold change vs veh, HNRNPA1 / RFU, RNF170 / Fold change vs veh, RNF170 / RFU, ZNF28 / Fold change vs veh, ZNF28 / RFU, RNGTT / Fold change vs veh, RNGTT / RFU, OGT / Fold change vs veh, OGT / RFU, BRD1 / Fold change vs veh, BRD1 / RFU, MARS / Fold change vs veh, MARS / RFU, ZNF655 / Fold change vs veh, ZNF655 / RFU, FAHD1 / Fold change vs veh, FAHD1 / RFU, BDP1 / Fold change vs veh, BDP1 / RFU, LRRCC1 / Fold change vs veh, LRRCC1 / RFU, ARID1A / Fold change vs veh, ARID1A / RFU, ZNF146 / Fold change vs veh, ZNF146 / RFU, ZNF330 / Fold change vs veh, ZNF330 / RFU, GPN3 / Fold change vs veh, GPN3 / RFU, C9orf123 / Fold change vs veh, C9orf123 / RFU, N4BP2L2 / Fold change vs veh, N4BP2L2 / RFU, ARFIP1 / Fold change vs veh, ARFIP1 / RFU, FAM179B / Fold change vs veh, FAM179B / RFU, BCL10 / Fold change vs veh, BCL10 / RFU, UHRF1BP1L / Fold change vs veh, UHRF1BP1L / RFU, BET1 / Fold change vs veh, BET1 / RFU, CNOT2 / Fold change vs veh, CNOT2 / RFU, ZNF268 / Fold change vs veh, ZNF268 / Fold change vs veh, ZNF507 / RFU, DGCR2 / Fold change vs veh, DGCR2 / RFU, WDSUB1 / Fold change vs veh, WDSUB1 / Fold change vs veh, HSP90B1 /// MIR3652 / RFU, ADSS / Fold change vs veh, ADSS / RFU, GK / Fold change vs veh, GK / RFU, ZNF148 / Fold change vs veh, ZNF148 / RFU, TAF9 / Fold change vs veh, TAF9 / RFU, SLC1A5 / Fold change vs veh, SLC1A5 / RFU, SLMO2 / Fold change vs veh, SLMO2 / RFU, ABCC4 / Fold change vs veh, ABCC4 / RFU, LOC101060439 /// RAP1B / Fold change vs veh, LOC101060439 /// RAP1B / RFU, RFX7 / Fold change vs veh, RFX7 / RFU, GTPBP10 / Fold change vs veh, GTPBP10 / RFU, CNEP1R1 / Fold change vs veh, CNEP1R1 / RFU, BIVM-ERCC5 /// ERCC5 / Fold change vs veh, BIVM-ERCC5 /// ERCC5 / RFU, ILF3 / Fold change vs veh, ILF3 / RFU 11762660_at / Fold change /veh 11762660_at / RFU VCAN (11757783_s_at) / Fold change /veh VCAN (11757783_s_at) / RFU DDX43 (11728927_at) / Fold change /veh DDX43 (11728927_at) / RFU KRT8 (11758188_x_at) / Fold change /veh KRT8 (11758188_x_at) / RFU NKD1 (11759106_at) / Fold change /veh NKD1 (11759106_at) / RFU SRD5A1 (11742802_a_at) / Fold change /veh SRD5A1 (11742802_a_at) / RFU TPSAB1 /// TPSB2 (11721975_s_at) / Fold change /veh TPSAB1 /// TPSB2 (11721975_s_at) / RFU GSTM3 (11746129_a_at) / Fold change /veh GSTM3 (11746129_a_at) / RFU IL23R (11737362_x_at) / Fold change /veh IL23R (11737362_x_at) / RFU TMEM51 (11727254_a_at) / Fold change /veh TMEM51 (11727254_a_at) / RFU PIWIL2 (11732686_x_at) / Fold change /veh PIWIL2 (11732686_x_at) / RFU ORM1 (11744905_x_at) / Fold change /veh ORM1 (11744905_x_at) / RFU CCDC152 (11743942_at) / Fold change /veh CCDC152 (11743942_at) / RFU ECM1 (11717891_a_at) / Fold change /veh ECM1 (11717891_a_at) / RFU IL23R (11748794_a_at) / Fold change /veh IL23R (11748794_a_at) / RFU TNFAIP8L3 (11732012_x_at) / Fold change /veh TNFAIP8L3 (11732012_x_at) / RFU MBOAT4 (11741988_at) / Fold change /veh MBOAT4 (11741988_at) / RFU 11764193_at / Fold change /veh 11764193_at / RFU TMEM53 (11763286_at) / Fold change /veh TMEM53 (11763286_at) / RFU MAGEB2 (11727129_at) / Fold change /veh MAGEB2 (11727129_at) / RFU TMEM200A (11744735_a_at) / Fold change /veh TMEM200A (11744735_a_at) / RFU CCDC152 (11751479_a_at) / Fold change /veh CCDC152 (11751479_a_at) / RFU FAM211A (11726209_a_at) / Fold change /veh FAM211A (11726209_a_at) / RFU RGS16 (11746705_a_at) / Fold change /veh RGS16 (11746705_a_at) / RFU VCAN (11755009_s_at) / Fold change /veh VCAN (11755009_s_at) / RFU RHOB (11743442_s_at) / Fold change /veh RHOB (11743442_s_at) / RFU RGS16 (11720943_a_at) / Fold change /veh RGS16 (11720943_a_at) / RFU RGS16 (11720944_at) / Fold change /veh RGS16 (11720944_at) / RFU, VPS4B / Fold change vs veh, VPS4B / RFU, CREB1 / Fold change vs veh, CREB1 / RFU, DNAJC13 / Fold change vs veh, DNAJC13 / RFU, GNAQ / Fold change vs veh, GNAQ / RFU, CDK5R1 / Fold change vs veh, CDK5R1 / RFU, ZRANB3 / Fold change vs veh, ZRANB3 / RFU, CUL4A / Fold change vs veh, CUL4A / RFU, CCNY / Fold change vs veh, CCNY / RFU, UFL1 / Fold change vs veh, UFL1 / RFU, COG3 / Fold change vs veh, COG3 / RFU, DIAPH2 / Fold change vs veh, DIAPH2 / RFU, SKA2 / Fold change vs veh, SKA2 / RFU, AFF3 / Fold change vs veh, AFF3 / RFU, LMF1 / Fold change vs veh, LMF1 / RFU, IPO11 / Fold change vs veh, IPO11 / RFU, DFFB / Fold change vs veh, DFFB / RFU, FOXP1 / Fold change vs veh, FOXP1 / RFU, CARD8 / Fold change vs veh, CARD8 / RFU, STRN3 / Fold change vs veh, STRN3 / RFU, ADK / Fold change vs veh, ADK / RFU, RASSF2 / Fold change vs veh, RASSF2 / RFU, WIPF1 / Fold change vs veh, WIPF1 / RFU, LARP1B / Fold change vs veh, LARP1B / RFU, RASA1 / Fold change vs veh, RASA1 / RFU, RB1 / Fold change vs veh, RB1 / RFU, PPFIA1 / Fold change vs veh, PPFIA1 / RFU, MAT2A / Fold change vs veh, MAT2A / RFU, CCT5 / Fold change vs veh, CCT5 / RFU, WDR92 / Fold change vs veh, WDR92 / RFU, CUX1 / Fold change vs veh, CUX1 / RFU, TTC7A / Fold change vs veh, TTC7A / RFU, TMEM135 / Fold change vs veh, TMEM135 / RFU, DEPTOR / Fold change vs veh, DEPTOR / RFU, CPM / Fold change vs veh, CPM / RFU, DNAJB6 / Fold change vs veh, DNAJB6 / RFU, CACNA2D3 / Fold change vs veh, CACNA2D3 / RFU, DTX4 / Fold change vs veh, DTX4 / RFU, TFCP2 / Fold change vs veh, TFCP2 / RFU, GMCL1 /// GMCL1P1 / Fold change vs veh, GMCL1 /// GMCL1P1 / RFU, AEBP2 / Fold change vs veh, AEBP2 / RFU, SNHG1 /// SNORD22 /// SNORD25 /// SNORD26 /// SNORD27 /// SNORD28 /// SNORD29 /// SNORD31 / Fold change vs veh, SNHG1 /// SNORD22 /// SNORD25 /// SNORD26 /// SNORD27 /// SNORD28 /// SNORD29 /// SNORD31 / Fold change (Aza/veh), C12orf56 (ProbeSet 11735607_a_at) / Fold change (ACY-1035/veh), C12orf56 (ProbeSet 11735607_a_at) / Fold change (Aza/veh), FGFR1OP (ProbeSet 11751329_s_at) / Fold change (ACY-1035/veh), FGFR1OP (ProbeSet 11751329_s_at) / Fold change (Aza/veh), VPS36 (ProbeSet 11739960_a_at) / Fold change (ACY-1035/veh), VPS36 (ProbeSet 11739960_a_at) / RFU SYPL1 (11715823_x_at) / Fold change /veh SYPL1 (11715823_x_at) / RFU IGFBP7 (11715501_s_at) / Fold change /veh IGFBP7 (11715501_s_at) / RFU REEP3 (11722064_at) / Fold change /veh REEP3 (11722064_at) / RFU IGLL1 (11728026_x_at) / Fold change /veh IGLL1 (11728026_x_at): dose or concentration left out as unconfirmed
Settings: ProbeSet 11733108_at; LIST D

For `Nc1ccc(-c2cccs2)cc1NC(=O)c1ccc2c(c1)cc(C1CC1)n2CCN1CCOCC1` [ACY-1035], the “RFU, GNAQ” value was 275.03 RFU.
